Measurements taken from patent EP4268819A1 (priority 2022, dated 2023).
Where two headings read alike, the source gives them in different places.

Assays:
CaCo2 and Calu3 cells = conditions: screening at 50, 10, 2 µM
icSARS-CoV-2-mNG [1] = type: cell-based, SARS-CoV-2
DENV = conditions: against DENV; reported, with a low therapeutic index; cited from earlier work
ZIKA = conditions: against ZIKA; reported, with a low therapeutic index; cited from earlier work
Calu-3 cells [2] = experiment: Toxicity by staining of the nuclei (Hoechst+ cell count) in the icSARS-CoV-2-mNG IC50 experiment; conditions: Calu3 cells in the icSARS-CoV-2-mNG IC50 experiment
[3] = CC50 calculation, MTT assay, Calu-3; type: cell-based; conditions: human, Calu-3 cells
Procedure: (§1) The cells were treated with drug candidates at the indicated concentrations. Negative control (non-treated), DMSO control and positive control (100% DMSO treated) were added, and plates were then stored at 37 °C, 5 % CO2 for 72h. The old cell media was then discarded, and cells were incubated for 3 h at 37°C, 5% CO2 with 90 µl phenolred-free DMEM-Media and 10 µl of a 5 mg/ml MTT solution per well (#ab146345 Abcam). Afterwards Media was discarded carefully, and Formazan crystals were dissolved on a shaker with 100 µl MTT buffer/well (0.04 N HCI in isopropanol) for 10 minutes. Absorption levels at 570 nm and 650 nm wavelength were measured by Berthold TriStar2 S Multimode Reader and values were normalized to non-treated cells. CC50 was calculated as the half-maximal cytotoxic dose via GraphPad Prism 9 using four-parameter nonlinear regression.
(§2) Absorption levels at 570 nm and 650 nm wavelength were measured and values were normalized to non-treated cells. CC50 was calculated as the half-maximal cytotoxic dose via GraphPad Prism 9 using four-parameter nonlinear regression.
(§3) They now expanded the tests and used MTT assay, which is a procedure used to calculate the redox activity at the mitochondrial membrane of cells and the commercial cell titer glow assay (Promega) to measure cellular ATP. Cell lines tested were the ones used for our antiviral assay, i.e. Calu-3, Caco-2 and Huh7.5 cells.

[4] = CC50 calculation, MTT assay, Huh7.5; type: cell-based; conditions: human, Huh7.5 cells
Procedure: as §1, §2, §3

in vitro [5] = type: cell-based; conditions: human
Procedure: The old cell media was then discarded, and cells were washed with PBS. 35 µl DMEM-Media and 35 µl CellTiterGlow® reagent (#G7571, Promega) were added and incubated for 2 minutes on an orbital shaker protected from light. Afterwards plates were incubated for 10 minutes without shaking to stabilize the luminescent signal. 50 µl of the supernatant was transferred to a white 96 well measure plate and measured by Berthold TriStar2 S Multimode Reader. The background signal was determined by the luminescent signal of the positive control subtracted from the values used for analysis. The data was then normalized to the non-treated control. CC50 was calculated as the half-maximal cytotoxic dose via GraphPad Prism 9 using four-parameter nonlinear regression.
Luminescent signals were measured by Berthold TriStar2 S Multimode Reader. The data was then normalized to the non-treated control. CC50 was calculated as the half-maximal cytotoxic dose via GraphPad Prism 9 using four-parameter nonlinear regression.

in vitro [6] = type: cell-based; conditions: human, caco-2; IncuCyte; cell line not specified; read-out: level of growth inhibition (live-cell imaging, growth curves)
Excerpt: For Analysis IncuCyte® S3 Software was used.

[7] = tested on: DENV type 2 reporter virus
Calu-3 cells [8] = tested on: Calu-3 cells
Procedure: (§4) Calu-3 (40.000/well), Huh7.5 (10.000/well) and CaCo2 (10.000/well) cells were seeded in 96-well plates in DMEM-Media. The cells were treated with the drug compounds at the indicated concentrations, negative control (non-treated), DMSO control and positive control (50% DMSO treated) were added, and plates were then stored in the IncuCyte® at 37 °C, 5 % CO2 for 72h measuring every 3 hours cell confluency via phase channel with 10x objective. For Analysis IncuCyte® S3 Software was used.
(§5) Plates were then stored in the IncuCyte® measuring every 3 hours cell confluency.

in vitro [9] = conditions: human, calu-3 cells, CC50 (IncuCyte), confluency every 3 hours for 72h
Procedure: as §4, §5

[10] = tested on: DENV type 2 reporter virus; experiment: microbe, parasite or virus in culture; conditions: Dengue virus, Huh7.5, 24 h
[11] = Cell viability via live cell imaging (IncuCyte), Huh7.5; conditions: human, huh7.5 cells
Procedure: as §4, §5

icSARS-CoV-2-mNG [12] = experiment: IC50 calculation with icSARS-CoV-2-mNG in Calu-3 cells (mNG+/Hoechst+ infection rate); conditions: ic-SARS-CoV-2-mNG in Calu-3 cells; for Therapeutic range: CC50/IC50 (CTG): CC50 by CTG; for Therapeutic range: CC50/IC50 (IncuCyte): CC50 by IncuCyte; for Therapeutic range: CC50/IC50 (MTT): CC50 by MTT
Huh7.5 cells = experiment: CC50 calculation, MTT assay, Huh7.5; type: cell-based; conditions: 72h, 4320 min
Procedure: as §1, §2, §3

[13] = Calu3 and Caco2 cells, 24h pre-treatment, […], 50, 10, 2 µM (Atpenin A5 10, 2, 0.4 µM)

## CC(C)Cc1nn(C)c(=O)c2c(SCCCO)n(Cc3cccc4ccccc34)cc12 [SR13800]
CaCo2 and Calu3 cells
  toxicity (cell viability by Hoechst staining of the nucleus): toxic

## O[C@H]1[C@H](O)[C@@H](O)[C@H](O)[C@@H](O)[C@@H]1O [Scyllo-Inositol, Scyllo-inositol]
icSARS-CoV-2-mNG [1]; [13]
  SARS-CoV-2 infection of the cell lines (infection rate mNG+/Hoechst+ cells): did not show any activity

## CN(C)C(=N)N=C(N)N [Metformin]
DENV
  antiviral activity: mM range
ZIKA
  antiviral activity: mM range
Calu-3 cells [2]
  toxicity (staining of the nuclei, cell count): without any cytotoxicity

## COc1[nH]c(=O)c(C(=O)[C@@H](C)C[C@H](C)[C@@H](Cl)CCl)c(O)c1OC [Atpenin A5, atpenin A5]
icSARS-CoV-2-mNG [1]; [13]
  SARS-CoV-2 infection of the cell lines (infection rate mNG+/Hoechst+ cells): inhibited SARS-CoV-2 infection of the cell lines in a dose-dependent manner
[3]
  CC50 at 72 h: 1.2 µM
[4]
  CC50 at 72 h: 101 µM
In vitro [5]; Calu-3 cells, 72h, read-out: CC50 (CTG)
  CC50 at 72 h: 0.86 µM
In vitro [5]; Huh7.5 cells, 72h, read-out: CC50 (CTG)
  CC50 at 72 h: 62 µM
In vitro [6]
  CC50 at 72 h: > 60 µM
[7]; Dengue Virus in Huh7.5 cells, CC50 by CTG
  Therapeutic range: CC50/IC50 (CTG): CTG: 229.5
[7]; Dengue Virus in Huh7.5 cells, CC50 by IncuCyte
  Therapeutic range: CC50/IC50 (IncuCyte): IncuCyte: 240.7
[7]; Dengue Virus in Huh7.5 cells, CC50 by MTT
  Therapeutic range: CC50/IC50 (MTT): MTT: 375.2
Calu-3 cells [8]; read-out: CC50 (IncuCyte), confluency every 3 hours for 72h, 4320 min
  CC50: > 80 µM
In vitro [9]
  CC50 at 72 h: > 160 µM
[10]
  IC50: 0.27 µM
[11]
  CC50 at 72 h: 65 µM
icSARS-CoV-2-mNG [12]
  Therapeutic range: CC50/IC50 (CTG): CTG: 1.72
  Therapeutic range: CC50/IC50 (IncuCyte): IncuCyte: > 320
  Therapeutic range: CC50/IC50 (MTT): MTT: 24

## [H]/N=C(/N)N/C(=N/[H])NCCc1ccccc1 [Phenformin]
icSARS-CoV-2-mNG [1]
  SARS-CoV-2 infection of the cell lines (infection rate mNG+/Hoechst+ cells): inhibited SARS-CoV-2 infection of the cell lines in a dose-dependent manner
Huh7.5 cells
  CC50: 61.2 µM
In vitro [5]; caco-2
  CC50 at 72 h: > 2 µM
In vitro [5]; calu-3 cells
  CC50 at 72 h: > 2 µM
In vitro [5]; huh7.5 cells
  CC50 at 72 h: > 2 µM
[7]; human, huh7.5 cells
  Therapeutic range: CC50/IC50 (CTG): CTG: 109.2
  Therapeutic range: CC50/IC50 (IncuCyte): IncuCyte: 59.9
  Therapeutic range: CC50/IC50 (MTT): MTT: 3.3
Calu-3 cells [8]; human, 72h
  CC50: 1500 µM
icSARS-CoV-2-mNG [12]
  Therapeutic range: CC50/IC50 (CTG): CTG: 1306.4
  Therapeutic range: CC50/IC50 (IncuCyte): IncuCyte: 867.1
  Therapeutic range: CC50/IC50 (MTT): MTT: 876.3
Calu-3 cells [2]
  toxicity (staining of the nuclei, cell count): without any toxicity
